# Assay results: publication PMC12514245, “Impaired migration and lung invasion of human melanoma by a novel small molecule targeting the transmembrane domain of death receptor p75^NTR” (EMBO Molecular Medicine, 2025)
# Where “and” joins values, the source holds several entries; their conditions need not be identical. Equal values may be shown once.
# How the values were obtained:
# [1] = biological target: T1, full-length p75^NTR in COS cells (Rattus norvegicus, UniProt P07174); test: Live cell homo-FRET anisotropy, wild-type p75NTR; type: cell-based; design: key to average anisotropy change, wt: fold change vs mean of 6 pre-treatment time points (baseline ≈ 100); conditions: for average anisotropy change, wt: 10 μM
# T1 construct: COS cells expressing full length, GFP-tagged rat p75^NTR; expressed in transfected cells; host or cells: COS-7
# T1 sequence (P07174 30-425): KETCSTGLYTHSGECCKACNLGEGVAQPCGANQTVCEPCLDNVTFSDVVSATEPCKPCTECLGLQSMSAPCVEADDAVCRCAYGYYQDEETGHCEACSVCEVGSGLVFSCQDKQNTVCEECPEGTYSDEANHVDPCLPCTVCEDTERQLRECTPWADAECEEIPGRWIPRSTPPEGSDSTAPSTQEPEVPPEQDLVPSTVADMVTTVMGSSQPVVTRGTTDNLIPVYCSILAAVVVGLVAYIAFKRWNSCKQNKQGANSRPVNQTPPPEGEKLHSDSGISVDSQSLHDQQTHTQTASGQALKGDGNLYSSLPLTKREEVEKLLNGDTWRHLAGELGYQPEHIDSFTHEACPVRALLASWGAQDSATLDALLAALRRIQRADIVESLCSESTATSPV
# Text: Previous real-time homo-FRET anisotropy studies by ours as well as other laboratories have shown that the intracellular death domains of p75^NTR are associated with each other (high FRET, low anisotropy state) under basal conditions (Vilar et al, [2009]; Sykes et al, [2012]), but neurotrophin binding induces transient separation of p75^NTR death domains (low FRET, high anisotropy state) manifested as oscillations in real-time anisotropy measurements (Lin et al, [2015]; Tanaka et al, [2016]; Goh et al, [2018]). COS cells expressing full length, GFP-tagged rat p75^NTR were treated with vehicle or Div17E5 and changes in anisotropy levels were recorded over time.
# Anisotropy imaging in COS-7 cells that were transfected with a rat p75^NTR-EGFP* fusion construct was done as previously described (Goh, Lin et al, [2018]). EGFP* carries a […] mutation rendering monomeric EGFP. Changes in anisotropy were expressed as fold change at each time point (every 30 s) in comparison to the mean of 6 time points obtained prior to addition of treatment. Images were acquired using Nikon Ti-E based live cell epi-fluorescence microscope and MetaMorph software and analyzed using MatLab from Mathworks.
# [2] = system: A875-NT melanoma xenograft; test: Melanoma lung invasion assay, A875-NT, delayed treatment 3 weeks after cell injection; type: in vivo, SCID mice
# Method: Finally, we investigated whether delayed administration of Np75-4A22 was able to affect engraftment and growth of metastatic tumors in the lung. To this end, drug treatment (orally at 200 mg/kg) was initiated 3 weeks after intravenous injection of A875-NT or A875-shp75 cells in female SCID mice and continued for additionally 4 weekly cycles (5 days on/2 days off) as above (Fig. 8E). Metastatic spread to the lungs was monitored weekly by bioluminescent imaging of luciferase-expressing melanoma cells. […] We conclude that Np75-4A22 can be efficacious at reducing the spread and seeding of melanoma cells in the lung when administered either before or after cell implantation.
# Eight-week-old female SCID mice (Charles River Laboratories, Shrewsbury, MA, USA) were housed in groups of three to five and maintained on a 12-h light/dark schedule with a temperature of 22 °C ± 1 °C and a relative humidity of 50% ± 5%. Food and water were available ad libitum. This research study was reviewed and approved by the University of Calgary Animal Care Committee (AC22-0054) and McGill University (AUP-JGH-8269) and adheres to established ethical principles and guidelines. A875-GFPLuc (A875-NT) or A875-GFPLuc shp75 (A875-shp75) cells harvested using Puck’s EDTA were resuspended in PBS and injected intravenously into SCID mice (5 × 10^5 cells/200 μl per mouse). Np75-4A22 was dissolved in 0.5% sodium carboxymethyl cellulose (NaCMC) in reverse osmosis H2O and administered by oral gavage at 200 mg/kg/day starting one day prior to intravenous (tail vein) injection of tumor cells and continued for 3 1-week cycles (cycle: 5 days on drug, 2 days off drug). Tumor spread to the lung was monitored weekly by luciferase activity using the Xenogen IVIS-200 Optical in vivo luciferase imaging system as described previously (Lun et al, [2016]) and by immunohistochemistry (IHC) at designated time points. IHC was performed after formalin fixation, paraffin embedding and sectioning of the lungs, using a human-specific mouse polyclonal nucleolin antibody (1:500 dilution) and detected using Dako liquid DAB+ Substrate Chromogen System (Dako: k3468, California, USA) followed by a hematoxylin counterstain (Sigma, Oakville, ON, Canada). Sections were mounted and imaged on an Olympus phase contrast microscope (Olympus Life Science, Tokyo, Japan). For immunofluorescence, sections were stained with anti-human nucleolin and anti-human p75NTR antibodies (1:1000 dilution), subsequently detected with 1:200 dilutions of Alexa Fluor™ 488 Goat anti-Mouse IgG (H + L) Highly Cross-Adsorbed Secondary Antibody and Alexa Fluor™ 568 Goat anti-Rabbit IgG (H + L) Cross-Adsorbed Secondary Antibody. Sections were further stained with DAPI to detect all nuclei. Between each treatment, TBS Automation Wash Buffer (Biocare Medical TWB945M) was employed. Images were taken with LSM800 confocal microscope and ZEN system.
compound,measurement,setting,value
Oc1ccc(-c2cncc(Nc3ccc(Br)c(Cl)c3)n2)cc1 [Div17E5],real-time homo-FRET anisotropy,[1]; 10 µM,induced oscillations in real-time anisotropy
same,"average anisotropy change, wt",[1]; 0 min after compound addition,106
same,"average anisotropy change, wt",[1]; 0.5 min after compound addition,88
same,"average anisotropy change, wt",[1]; 1 min after compound addition,110
same,"average anisotropy change, wt",[1]; 1.5 min after compound addition,101
same,"average anisotropy change, wt",[1]; 2 min after compound addition,115
same,"average anisotropy change, wt",[1]; 2.5 min after compound addition,82
same,"average anisotropy change, wt",[1]; 3 min after compound addition,112
same,"average anisotropy change, wt",[1]; 3.5 min after compound addition,105
same,"average anisotropy change, wt",[1]; 4 min after compound addition,80
same,"average anisotropy change, wt",[1]; 4.5 min after compound addition,111
same,"average anisotropy change, wt",[1]; 5 min after compound addition,83
same,"average anisotropy change, wt",[1]; 5.5 min after compound addition,99
same,"average anisotropy change, wt",[1]; 6 min after compound addition,121
same,"average anisotropy change, wt",[1]; 6.5 min after compound addition,122
same,"average anisotropy change, wt",[1]; 7 min after compound addition,100
same,"average anisotropy change, wt",[1]; 7.5 min after compound addition,100
same,"average anisotropy change, wt",[1]; 8 min after compound addition,74
same,"average anisotropy change, wt",[1]; 8.5 min after compound addition,96
same,"average anisotropy change, wt",[1]; 9 min after compound addition,96
same,"average anisotropy change, wt",[1]; 9.5 min after compound addition,103
same,"average anisotropy change, wt",[1]; 10 min after compound addition,99
same,"average anisotropy change, wt",[1]; 10.5 min after compound addition,110
same,"average anisotropy change, wt",[1]; 11 min after compound addition,95
same,"average anisotropy change, wt",[1]; 11.5 min after compound addition,89
same,"average anisotropy change, wt",[1]; 12 min after compound addition,110
same,"average anisotropy change, wt",[1]; 12.5 min after compound addition,95
same,"average anisotropy change, wt",[1]; 13 min after compound addition,108
same,"average anisotropy change, wt",[1]; 13.5 min after compound addition,110
same,"average anisotropy change, wt",[1]; 14 min after compound addition,100
same,"average anisotropy change, wt",[1]; 14.5 min after compound addition,105
same,"average anisotropy change, wt",[1]; 15 min after compound addition,94
same,"average anisotropy change, wt",[1]; -0.5 min after compound addition,104
same,"average anisotropy change, wt",[1]; -1 min after compound addition,103
same,"average anisotropy change, wt",[1]; -1.5 min after compound addition,97
same,"average anisotropy change, wt",[1]; -2 min after compound addition,101
same,"average anisotropy change, wt",[1]; -2.5 min after compound addition,97
same,"average anisotropy change, wt",[1]; -3 min after compound addition,98
Cc1cccc(-c2cncc(Nc3ccc(Br)c(Cl)c3Cl)n2)c1C [Np75-4A22],"Average Photons/second/week, wk2","[2]; A875-NT, group average, wk2",7.77E+04 Photons/second
same,"Average Photons/second/week, wk3","[2]; A875-NT, group average, wk3",1.89E+05 Photons/second
same,"Average Photons/second/week, wk4","[2]; A875-NT, group average, wk4",1.70E+05 Photons/second
same,"Average Photons/second/week, wk5","[2]; A875-NT, group average, wk5",3.04E+05 Photons/second
same,"Average Photons/second/week, wk6","[2]; A875-NT, group average, wk6",8.45E+05 Photons/second
same,"Average Photons/second/week, wk7","[2]; A875-NT, group average, wk7",3.17E+06 Photons/second
same,"Photons/second/ mouse/week, wk2","[2]; A875-NT, individual mouse, wk2",7.00E+04 Photons/second and 7.88E+04 Photons/second and 6.89E+04 Photons/second and 1.01E+05 Photons/second and 8.02E+04 Photons/second and 7.86E+04 Photons/second and 8.67E+04 Photons/second and 5.74E+04 Photons/second
same,"Photons/second/ mouse/week, wk3","[2]; A875-NT, individual mouse, wk3",1.59E+05 Photons/second and 1.50E+05 Photons/second and 1.97E+05 Photons/second and 3.40E+05 Photons/second and 2.35E+05 Photons/second and 1.26E+05 Photons/second and 1.46E+05 Photons/second
same,"Photons/second/ mouse/week, wk4","[2]; A875-NT, individual mouse, wk4",1.44E+05 Photons/second and 1.39E+05 Photons/second and 1.26E+05 Photons/second and 1.15E+05 Photons/second and 2.32E+05 Photons/second and 2.12E+05 Photons/second and 2.11E+05 Photons/second and 1.82E+05 Photons/second
same,"Photons/second/ mouse/week, wk5","[2]; A875-NT, individual mouse, wk5",2.30E+05 Photons/second and 1.68E+05 Photons/second and 2.24E+05 Photons/second and 7.71E+05 Photons/second and 3.62E+05 Photons/second and 2.51E+05 Photons/second and 2.06E+05 Photons/second and 2.23E+05 Photons/second
same,"Photons/second/ mouse/week, wk6","[2]; A875-NT, individual mouse, wk6",1.70E+05 Photons/second and 6.38E+04 Photons/second and 3.70E+05 Photons/second and 3.16E+06 Photons/second and 2.58E+06 Photons/second and 1.54E+05 Photons/second and 1.46E+05 Photons/second and 1.19E+05 Photons/second
same,"Photons/second/ mouse/week, wk7","[2]; A875-NT, individual mouse, wk7",5.60E+05 Photons/second and 5.09E+05 Photons/second and 3.70E+06 Photons/second and 1.34E+07 Photons/second and 6.38E+06 Photons/second and 2.75E+05 Photons/second and 2.70E+05 Photons/second and 2.40E+05 Photons/second
same,"lung tumors (bioluminescent imaging), delayed treatment","[2]; oral 200 mg/kg, started 3 weeks after cell injection, 4 weekly cycles",reducing A875-NT lung tumors to very low levels
